How the values were obtained:
[1] = target: T1, ATP-dependent translocase ABCB1 (Homo sapiens, UniProt P08183); assay: TP_TRANSPORTER: drug resistance (vinblastine) in K562-DR cells; assay type: functional, cell-based
[2] = target: T1, ATP-dependent translocase ABCB1; assay: TP_TRANSPORTER: drug resistance (vinblastine) in HepG2-DR cells; assay type: functional, cell-based

T1 sequence (P08183 whole entry): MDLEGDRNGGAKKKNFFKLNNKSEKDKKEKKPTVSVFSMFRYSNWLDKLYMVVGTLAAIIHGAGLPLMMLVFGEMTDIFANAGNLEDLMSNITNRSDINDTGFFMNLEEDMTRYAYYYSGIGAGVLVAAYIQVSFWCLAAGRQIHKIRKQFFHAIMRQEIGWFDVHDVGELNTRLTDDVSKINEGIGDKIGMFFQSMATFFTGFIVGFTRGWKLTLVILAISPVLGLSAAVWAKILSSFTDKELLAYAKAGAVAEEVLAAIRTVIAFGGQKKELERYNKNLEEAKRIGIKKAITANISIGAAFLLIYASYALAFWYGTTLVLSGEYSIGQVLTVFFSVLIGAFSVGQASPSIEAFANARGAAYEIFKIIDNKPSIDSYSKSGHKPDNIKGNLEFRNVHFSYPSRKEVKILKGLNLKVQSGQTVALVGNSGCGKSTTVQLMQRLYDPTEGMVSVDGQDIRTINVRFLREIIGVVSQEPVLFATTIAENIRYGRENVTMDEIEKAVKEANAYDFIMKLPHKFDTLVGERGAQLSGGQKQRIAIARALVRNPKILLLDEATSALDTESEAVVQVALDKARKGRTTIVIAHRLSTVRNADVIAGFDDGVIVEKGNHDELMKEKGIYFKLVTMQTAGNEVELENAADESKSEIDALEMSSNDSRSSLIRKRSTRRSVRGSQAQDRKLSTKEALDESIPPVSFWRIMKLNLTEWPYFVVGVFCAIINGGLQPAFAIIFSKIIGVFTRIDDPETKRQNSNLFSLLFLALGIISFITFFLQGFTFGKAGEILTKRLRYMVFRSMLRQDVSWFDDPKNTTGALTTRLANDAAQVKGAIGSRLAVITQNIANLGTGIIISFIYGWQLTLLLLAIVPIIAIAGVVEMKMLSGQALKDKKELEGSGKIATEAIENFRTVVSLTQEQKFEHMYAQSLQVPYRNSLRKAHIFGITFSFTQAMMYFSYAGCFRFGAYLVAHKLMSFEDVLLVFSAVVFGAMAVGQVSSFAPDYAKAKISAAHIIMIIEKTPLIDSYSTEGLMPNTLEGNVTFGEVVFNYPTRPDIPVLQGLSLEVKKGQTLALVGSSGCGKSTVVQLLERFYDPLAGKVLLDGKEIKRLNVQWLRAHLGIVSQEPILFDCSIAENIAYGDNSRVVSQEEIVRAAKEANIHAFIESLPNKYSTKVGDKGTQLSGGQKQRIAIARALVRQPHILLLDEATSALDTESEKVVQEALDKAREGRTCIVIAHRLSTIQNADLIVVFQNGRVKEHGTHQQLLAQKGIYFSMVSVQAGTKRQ

Activity [1]: inhibitor [+]
Activity [2]: inhibitor [+]
SMILES: C[C@H](C[C@](O)(CC(=O)O)C1OC1(C)C)C1=C2C[C@H](O)[C@@H]3[C@H](CCC4C(C)(C)C(=O)CC[C@@]43C)[C@@]2(C)CC1 (some centres not stated)
